Assay results taken from patent EP0362304B1, “CHEMICAL SENSORS EMPLOYING CATALYTIC ANTIBODIES” (IGEN, INC., priority 1987, dated 1989).

Columns and labels:
[1] = tested on: IgG designated catalytic antibody 48G7, monoclonal antibody elicited to the tetrahedral nitrophenyl phosphonate transition-state analogue (2); assay: Antibody-catalysed hydrolysis of carbonate (1), followed by the increase in absorbance at 400 nm (nitrophenolate ion release), Michaelis-Menten kinetics; format: biochemical, BALB/C mice
Protocol: BALB/C mice were immunized with the BSA-phosphonate conjugate emulsified in complete Freund's adjuvant. A fusion was carried out by standard methods using SP2/0 myeloma as the fusion partner. IgG was purified from ascites fluid by affinity chromatography on protein A coupled Sepharose 4B and dialyzed exhaustively against reaction buffer.
The rates of hydrolysis of carbonate I (1) in the presence (kobsd) and the absence (kun) of 4.4 µM antibody were determined as a function of substrate concentration. Carbonate hydrolysis was followed in 10 mM Tris-HCl, pH 8.5 at 30°C, by following the increase in absorbance at 400 nm due to nitrophenolate ion release.

catalytic antibody 48G7 = assay: pH-based catalytic antibody biosensor: differential electrode response to MpNPC after incubation in transition state analog; format: biochemical, BALB/C mice; conditions: electrodes incubated in 50 µM TSA; pH 8.5 buffer (0.14 M KCl, 0.01 M Tris, 0.02% sodium azide); substrate MpNPC
Excerpt: A pH-based catalytic antibody biosensor incorporating catalytic antibodies as enzyme mimics in a configuration similar to that of enzyme electrodes was used to measure the pH change resulting from the catalyzed hydrolysis of methyl p-nitrophenylcarbonate (MpNPC). […] The catalytic antibody 48G7 is synthesized and its catalytic activity identified in accordance with the methodology described in Example 1.
The catalytic antibody 48G7 produces a relatively small rate of acceleration as compared to natural enzymes. Consequently, the observed pH difference is small but is easily measurable in a reproducible manner. […] Two miniature pH electrodes 152 and 154 were employed and the difference between the two was monitored. […]
The electrical potential of the two miniature pH electrodes 152 and 154 (Microelectrodes Inc., model MI-404) was monitored relative to a single Ag/AgCl reference electrode 156 in an nonthermostated vessel 158 as shown in Fig. 13 using two Keithley 617 electrometers 160. […]
The reference electrode 156 and the two pH electrodes 152 and 154 were placed in 2.5 ml of a pH 8.5 buffer (0.14 M KCl, 0.01 M Tris, 0.02% sodium azide) and allowed to stabilize for […]. […] The response to MpNPC was measured after approximately 12 hours in solution (not shown) but the remainder of the measurements were performed after approximately 36 hours in solution. […]

[2] = 4.4 µM antibody, 10 mM Tris-HCl, pH 8.5 at 30°C, first pair of values printed
[3] = second pair of values printed ("This IgG", designated 48G7)

Km [1, 2] [µM]	Km [1, 3] [µM]	SMILES	kcat [1, 2] [s⁻¹]	rate acceleration above background ([1]; antibody-catalysed versus background rate)	kcat [1, 3] [s⁻¹]	inhibition of catalysis (MpNPC hydrolysis) (catalytic antibody 48G7)
660	350	COC(=O)Oc1ccc([N+](=O)[O-])cc1 [carbonate (1), methyl p-nitrophenylcarbonate]	0.0233 ± 0.00333	16,000	0.483	–
–	–	COP(=O)(O)Oc1ccc([N+](=O)[O-])cc1 [transition state analog (TSA), methyl p-nitrophenylphosphate]	–	–	–	effectively inhibits the catalysis
